SMILES strings stand for the structures. Some results are limits rather than exact numbers.

The assay deals with T1, p-AXL (Homo sapiens, UniProt P30530).
T1 construct: expressed in transfected cells; host or cells: HEK293T
T1 sequence (P30530 26-894): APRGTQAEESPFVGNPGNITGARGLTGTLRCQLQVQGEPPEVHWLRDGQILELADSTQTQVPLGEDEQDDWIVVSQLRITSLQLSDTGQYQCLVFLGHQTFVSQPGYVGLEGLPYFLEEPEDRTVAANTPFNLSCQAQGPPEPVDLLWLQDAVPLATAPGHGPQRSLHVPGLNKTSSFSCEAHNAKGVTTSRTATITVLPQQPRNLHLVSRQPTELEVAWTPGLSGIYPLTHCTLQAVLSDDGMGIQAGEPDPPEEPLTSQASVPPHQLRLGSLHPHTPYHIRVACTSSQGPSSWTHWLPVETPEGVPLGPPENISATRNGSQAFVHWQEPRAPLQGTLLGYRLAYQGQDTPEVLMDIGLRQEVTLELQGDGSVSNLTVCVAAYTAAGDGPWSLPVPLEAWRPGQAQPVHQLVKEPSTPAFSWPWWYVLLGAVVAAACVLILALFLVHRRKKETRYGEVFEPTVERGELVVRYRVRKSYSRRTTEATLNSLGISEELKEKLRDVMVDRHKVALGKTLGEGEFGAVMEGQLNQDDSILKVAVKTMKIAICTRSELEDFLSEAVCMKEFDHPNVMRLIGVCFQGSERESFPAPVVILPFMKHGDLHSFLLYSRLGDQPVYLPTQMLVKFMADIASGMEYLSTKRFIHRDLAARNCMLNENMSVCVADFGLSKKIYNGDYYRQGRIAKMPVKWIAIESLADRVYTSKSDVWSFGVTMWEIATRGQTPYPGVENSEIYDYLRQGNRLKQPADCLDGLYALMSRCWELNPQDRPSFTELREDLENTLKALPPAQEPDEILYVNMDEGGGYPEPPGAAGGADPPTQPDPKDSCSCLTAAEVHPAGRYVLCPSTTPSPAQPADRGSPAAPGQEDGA
The experiment in a line: Axl phosphorylation inhibition ELISA in HEK293T cells transfected with NanoLuc-tagged AXL. In kind it is cell-based. The settings on record: 1 h compound incubation, media (OptiMEM). In outline: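 HEK293T cells transiently transfected one day earlier with NanoLuc-tagged AXL were exposed to 22-point 2-fold compound dilutions for 1 h at 37° C (70,000 cells/well), then lysed. Lysates captured on anti-phospho-tyrosine coated plates for 2 h; bound p-AXL read by NanoLuc luminescence; IC50 from 4-parameter logistic fit.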
As usually defined, the IC50 is the midpoint of a concentration-inhibition curve. A lower IC50 goes with inhibition by little substance. `O=C1CCCN1c1cccnc1-c1ccc(-c2c[nH]c3ncc(-c4ccc5c(c4)CC[C@@H](N4C6COCC4C6)CC5)cc23)cc1` [Example 7, 1-[2-(4-{5-[(7S)-7-{3-Oxa-6-azabicyclo[3.1.1]heptan-6-yl}-6,7,8,9-tetrahydro-5H-benzo[7]annulen-2-yl]-1H-pyrrolo[2,3-b]pyridin-3-yl}phenyl)pyridin-3-yl]pyrrolidin-2-one] showed an IC50 of less than 100 nM.

In turn, `O=c1ccccn1-c1ccc(-c2n[nH]c3ncc(-c4ccc5c(c4)CC[C@@H](N4C6COCC4C6)CC5)cc23)cc1` [Example 31, 1-[4-[5-[(7S)-7-(3-Oxa-6-azabicyclo[3.1.1]heptan-6-yl)-6,7,8,9-tetrahydro-5H-benzo[7]annulen-3-yl]-1H-pyrazolo[3,4-b]pyridin-3-yl]phenyl]pyridin-2-one] returned an IC50 of 100 to 1000 nM.

On to `c1cnc(-c2ccc(-c3n[nH]c4ncc(-c5ccc6c(c5)CC[C@@H](N5C7COCC5C7)CC6)cc34)cc2)c(C2CC2)c1` [Example 179, 6-[(7S)-2-{3-[4-(3-Cyclopropylpyridin-2-yl)phenyl]-1H-pyrazolo[3,4-b]pyridin-5-yl}-6,7,8,9-tetrahydro-5H-benzo[7]annulen-7-yl]-3-oxa-6-azabicyclo[3.1.1]heptane], for which the IC50 fell in the range of 100 to 1000 nM.

The compound `CCc1cccnc1-c1ccc(-c2n[nH]c3ncc(-c4ccc5c(c4)CC[C@@H](N4C6COCC4C6)CC5)cc23)cc1` [Example 182, 6-[(7S)-2-{3-[4-(3-Ethylpyridin-2-yl)phenyl]-1H-pyrazolo[3,4-b]pyridin-5-yl}-6,7,8,9-tetrahydro-5H-benzo[7]annulen-7-yl]-3-oxa-6-azabicyclo[3.1.1]heptane] came in with an IC50 of less than 100 nM.

`CO[C@H]1C[C@@H](N[C@H]2CCc3ccc(-c4cnc5[nH]nc(-c6ccc(-c7ncccc7C)cc6)c5c4)cc3CC2)C1` [Example 131, (7S)-2-{3-[4-(3-Methylpyridin-2-yl)phenyl]-1H-pyrazolo[3,4-b]pyridin-5-yl}-N-[cis-3-methoxycyclobutyl]-6,7,8,9-tetrahydro-5H-benzo[7]annulen-7-amine] gave an IC50 of 100 to 1000 nM.

The compound `C[C@H]1COC(=O)N1c1cccnc1-c1ccc(-c2n[nH]c3ncc(-c4ccc5c(c4)CC[C@@H](N4C6COCC4C6)CC5)cc23)cc1` [Example 125, (4S)-4-Methyl-3-[2-(4-{5-[(7S)-7-{3-oxa-6-azabicyclo[3.1.1]heptan-6-yl}-6,7,8,9-tetrahydro-5H-benzo[7]annulen-2-yl]-1H-pyrazolo[3,4-b]pyridin-3-yl}phenyl)pyridin-3-yl]-1,3-oxazolidin-2-one] came in with an IC50 of less than 100 nM.

For `FC(F)Oc1cccnc1-c1ccc(-c2n[nH]c3ncc(-c4ccc5c(c4)CC[C@@H](N4C6COCC4C6)CC5)cc23)cc1` [Example 99, 6-[(7S)-2-(3-{4-[3-(Difluoromethoxy)pyridin-2-yl]phenyl}-1H-pyrazolo[3,4-b]pyridin-5-yl)-6,7,8,9-tetrahydro-5H-benzo[7]annulen-7-yl]-3-oxa-6-azabicyclo[3.1.1]heptane], the IC50 was less than 100 nM.

As to `Cc1nn(C)nc1-c1ccc(-c2n[nH]c3ncc(-c4ccc5c(c4)CC[C@@H](N4C6COCC4C6)CC5)cc23)cc1` [Example 14, 6-[(7S)-2-{3-[4-(2,5-Dimethyl-2H-1,2,3-triazol-4-yl)phenyl]-1H-pyrazolo[3,4-b]pyridin-5-yl}-6,7,8,9-tetrahydro-5H-benzo[7]annulen-7-yl]-3-oxa-6-azabicyclo[3.1.1]heptane], the IC50 was less than 100 nM.

On to `CS(=O)(=O)c1cccnc1-c1ccc(-c2c[nH]c3ncc(-c4ccc5c(c4)CC[C@@H](N4C6COCC4C6)CC5)cc23)cc1` [Example 102, 6-[(7S)-2-{3-[4-(3-Methanesulfonylpyridin-2-yl)phenyl]-1H-pyrrolo[2,3-b]pyridin-5-yl}-6,7,8,9-tetrahydro-5H-benzo[7]annulen-7-yl]-3-oxa-6-azabicyclo[3.1.1]heptane], for which the 50% inhibitory concentration (IC50) was less than 100 nM.

Consider `Cc1cccnc1-c1ccc(-c2c[nH]c3ncc(-c4ccc5c(c4)CC[C@@H](N[C@H]4CCCOC4)CC5)cc23)cc1` [Example 186, (3S)—N-[(7S)-2-{3-[4-(3-Methylpyridin-2-yl)phenyl]-1H-pyrrolo[2,3-b]pyridin-5-yl}-6,7,8,9-tetrahydro-5H-benzo[7]annulen-7-yl]oxan-3-amine], for which the IC50 lay within 100 to 1000 nM.

`Cc1ccc(C)c(-c2ccc(-c3n[nH]c4ncc(-c5ccc6c(c5)CC[C@@H](N5C7COCC5C7)CC6)cc34)cc2)n1` [Example 120, 6-[(7S)-2-{3-[4-(3,6-Dimethylpyridin-2-yl)phenyl]-1H-pyrazolo[3,4-b]pyridin-5-yl}-6,7,8,9-tetrahydro-5H-benzo[7]annulen-7-yl]-3-oxa-6-azabicyclo[3.1.1]heptane] displayed an IC50 of less than 100 nM.

`Cc1ncc(C)c(-c2ccc(-c3c[nH]c4ncc(-c5ccc6c(c5)CC[C@@H](N5C7COCC5C7)CC6)cc34)cc2)n1` [Example 123, 6-[(7S)-2-{3-[4-(2,5-Dimethylpyrimidin-4-yl)phenyl]-1H-pyrrolo[2,3-b]pyridin-5-yl}-6,7,8,9-tetrahydro-5H-benzo[7]annulen-7-yl]-3-oxa-6-azabicyclo[3.1.1]heptane] registered an IC50 of less than 100 nM.

For `CN(C(=O)C1CC1)c1cccnc1-c1ccc(-c2n[nH]c3ncc(-c4ccc5c(c4)CC[C@@H](N4C6COCC4C6)CC5)cc23)cc1` [Example 128, N-Methyl-N-[2-(4-{5-[(7S)-7-{3-oxa-6-azabicyclo[3.1.1]heptan-6-yl}-6,7,8,9-tetrahydro-5H-benzo[7]annulen-2-yl]-1H-pyrazolo[3,4-b]pyridin-3-yl}phenyl)pyridin-3-yl]cyclopropanecarboxamide], the IC50 was less than 100 nM.

Regarding `FC(F)(F)Oc1cccnc1-c1ccc(-c2c[nH]c3ncc(-c4ccc5c(c4)CC[C@@H](N4C6COCC4C6)CC5)cc23)cc1` [Example 103, 6-[(7S)-2-(3-{4-[3-(Trifluoromethoxy)pyridin-2-yl]phenyl}-1H-pyrrolo[2,3-b]pyridin-5-yl)-6,7,8,9-tetrahydro-5H-benzo[7]annulen-7-yl]-3-oxa-6-azabicyclo[3.1.1]heptane], the IC50 was greater than 1000 nM.

As to `O=C(c1cccnc1-c1ccc(-c2n[nH]c3ncc(-c4ccc5c(c4)CC[C@@H](N4C6COCC4C6)CC5)cc23)cc1)N1CCCC1` [Example 4, 6-[(7S)-2-(3-{4-[3-(Pyrrolidine-1-carbonyl)pyridin-2-yl]phenyl}-1H-pyrazolo[3,4-b]pyridin-5-yl)-6,7,8,9-tetrahydro-5H-benzo[7]annulen-7-yl]-3-oxa-6-azabicyclo[3.1.1]heptane], the IC50 is 100 to 1000 nM.

`COC[C@H]1CCN([C@H]2CCc3ccc(-c4cnc5[nH]nc(-c6ccc(-c7ncccc7C)cc6)c5c4)cc3CC2)C1` [Example 132, 2-(4-{5-[(7S)-7-[(3S)-3-(Methoxymethyl)pyrrolidin-1-yl]-6,7,8,9-tetrahydro-5H-benzo[7]annulen-2-yl]-1H-pyrazolo[3,4-b]pyridin-3-yl}phenyl)-3-methylpyridine] displayed an IC50 of less than 100 nM.

`c1ccc(-c2ccc(-c3c[nH]c4ncc(-c5ccc6c(c5)CC[C@@H](N[C@H]5CCCOC5)CC6)cc34)cc2)nc1` [Example 32, (3S)—N-[(7S)-3-[3-(4-Pyridin-2-ylphenyl)-1H-pyrrolo[2,3-b]pyridin-5-yl]-6,7,8,9-tetrahydro-5H-benzo[7]annulen-7-yl]oxan-3-amine] displayed an IC50 of 100 to 1000 nM.
